Data from patent US20250230413A1, “METHODS AND SYSTEMS FOR THE CULTURE OF CELLS AT LIQUID-LIQUID INTERFACES” (Queen Mary University of London, priority 2022, published 2025).

Assays:
iPSCs = experiment: Cardiomyocyte differentiation of iPSCs on βLG-SMCC-VN microdroplets or EBs, flow cytometry of TNNT2+; type: cell-based, human; conditions: differentiation initiated 2 days after seeding, CDM3 medium
Experimental: Embryoid bodies Formation. Polyvinyl alcohol (PVA) was dissolved in E8 flex medium overnight to achieve a concentration of 4% PVA. This was then filtered and supplemented with 10 μM Y-27632. iPSCs were dissociated with Gentle Cell Dissociation Reagent according to manufacturer's instructions. After centrifugation, cells were counted. An aliquot of the cell suspension is then taken and centrifuged at 120×g for 3 minutes. The cell pellet was then resuspended in E8 flex with PVA and Y-27632 to achieve a cell concentration of 1×10^6 cells/mL. A petri dish was then filled with sterile water. The lid was then placed upside down and multiple 10 μL drops of the cell suspension was then placed on the lid. The lid was then placed back on the petri dish resulting in hanging droplets. After 24 hours, 30 embryoid bodies were transferred to a well of an ultra-low attachment 6-well plate filled with E8 flex medium.
Cardiomyocyte Differentiation. The iPSCs were seeded on microdroplets and tissue culture plastic controls in E8 flex medium supplemented with Y-27632, a ROCK inhibitor. After 24 hours, the medium was replaced with E8 flex medium. […]
Flow Cytometry. […] Cells were then counted and stained with the staining solution for surface markers. […] Stained cells were analysed with BD LSRII. […] The data was analysed using FlowJo software.

HEK293T cells = conditions: HEK293T on BSA interfaces for 22 days
Experimental: Cell seeding on emulsions. HEK293T cells, human iPSCs, Human primary keratinocytes and human MSCs were cultured according to manufacturer's instructions. For cell culture, 500 μL of corresponding medium was transferred per well in a 24 well plate treated with 25 μg/mL poly(L-lysine)-graft-polyethylene glycol (PLL-g-PEG, SuSoS). Then, 100 μL of emulsion were transferred per well. Different cell densities were used depending on the cell type. Being 10^4 cells/well for HEK293T, 4×10^4 cells/well for iPSCs, and 4×10^4 cells/well for MSCs.
Proliferation assay CCK8. Proliferation assays were performed using the Cell Counting Kit-8 (Dojindo, Kumamoto, Japan). HEK293T growing on emulsions were incubated with 100 μl CCK-8 reagent for 4 hours at 37° C. over different time-points, and optical density at 450 nm was measured.

MSCs [1] = experiment: Growth of MSCs at crosslinked βLG and BSA nanosheets (Novec 7500 interfaces); type: cell-based, human; conditions: MSCs growing for 5 days; interfaces crosslinked by sulfo-SMCC (1 mg/ml, pH 7.4), fibronectin coupled
Experimental: (§1) Human Bone Marrow Derived Mesenchymal Stem Cell culture and seeding. hBM-MSCs were purchased from PromoCell and cultured according to the supplier's recommendations.
Generation of fluorinated pinned droplets for cell culture. Thin glass slides (25×60 mm, VWR) were washed with isopropanol and dried under nitrogen, prior to plasma oxidation for 10 min (Henniker Plasma HPT-200). Slides were then placed into an anhydrous ethanol solution (9.5 mL) containing trichloro-1H,1H,2H,2H-perfluorooctyl silane (97%, Sigma-Aldrich) (500 μL) for 1 h, at room temperature. The fluorinated glass slides were cut into chips (1×1 cm) and placed into a 24 well plate (for Hoechst staining), or the glass slides were kept at their original dimensions and embedded on sticky-slide 8 wells plates (Ibidi), for imaging on a confocal microscope. After sterilization with 70% ethanol, the wells were washed (once) and then filled with 2 mL (or 600 μL for the sticky wells) of PBS (pH 7.4 for βLG, Fibrinogen and different BSA types, and pH 10.5 for poly(L-lysine), PLL). 100 μL of fluorinated oil (or 10 μL for the sticky wells), with or without fluorinated surfactant (10 μg/mL) were added to the surface of the glass slide, forming a fluorinated pinned droplet. For samples prepared in 24 well plates, 30 μL of the oil phase was removed using a micropipette, to form a flatter oil droplet. […]
Immuno-fluorescence staining.

MSCs [2] = experiment: Scale-up growth of MSCs on fluorinated oil/MA-BSA bioemulsions in 250 ml flask; type: cell-based, human; conditions: 15 days, 250 ml flask under agitation
Experimental: as §1
RGD peptide coupling to biofunctionalised BSA. For the preparation of emulsions, RGD peptide coupling to functionalized BSA molecules was performed first. RGD peptide concentration was determined for each functionalized BSA formulation to enable coupling of 10 peptides per BSA molecule. Custom peptides were designed to allow reaction with functional groups in the modified BSA backbone. GCGGRGDSPG peptide was coupled to NB-BSA via […] in the presence of 1% lithium phenyl-2,4,6-trimethylbenzoylphosphinate (LAP, Sigma-Aldrich), crosslinking was performed with 405 nm blue light for 3 min. at 20 mW/cm2. CGGRGDSPG peptide was conjugated to AC-BSA and MA-BSA via […] in PBS pH 9 for at least 3 hours. The same procedure was used for FITC-RGD bearing peptides.
Conical flask bioreactor scale-up. Scale up of the MA-BSA bioemulsions system was performed on 250 ml polycarbonate Erlenmeyer flasks (Corning) with Vent caps, using a total amount of medium of 50 ml. […] Cell numbers/surface area used in bioemulsions and 2D conditions were the same (1000 cells/cm^2) and calculated assuming and average diameter of 100 μm for the bioemulsions. […]

With Cc1c[nH]c(-c2cnc(NCCNc3ccc(C#N)cn3)nc2-c2ccc(Cl)cc2Cl)n1 [CHIR99021] the “Percentage of TNNT2+ (whether differentiation works)” value (iPSCs; CHIR99021 6 μM, varying Wnt-C59) was “consistently works across conditions except for 230 μm microdroplets when 5 μM of Wnt-C59 is used” and the “Percentage of TNNT2+ (whether differentiation works)” value (iPSCs; higher CHIR99021 concentration (above 6 μM)) was “only works for microdroplets and only when followed by 5 μM Wnt-C59”.
For Bovine Serum Albumin [BSA], the “proliferation after long-term culture” value (HEK293T cells) was “high proliferation” and the “cell adhesion to the interface (vinculin staining)” value (MSCs [1]) was “excellent cell adhesion”.
With MS-BSA: methacrylated BSA the “coverage of bioemulsion surface by cells” value (MSCs [2]) was “cells cover all the available surface of the bioemulsions”.
